From patent US11613531B2, “Inhibitors of RHO associated coiled-coil containing protein kinase” (Kadmon Corporation, LLC, priority 2017, dated 2023)

target: Recombinant ROCK2 (amino acids 1-552) (Homo sapiens (Human), UniProt O75116); experiment: Z′-Lyte kinase assay, ROCK2; assay type: biochemical; conditions: not given
Protocol: Determination of Compound's ROCK Inhibitory Activity In Vitro (Z'Lyte Assay).
Recombinant ROCK1 (amino acids 1-535) and ROCK2 (amino acids 1-552) proteins were purchased from ThermoFisher Scientific. Compound's activities were measured by Z′-lyte kinase kit (ThermoFisher Scientific) and IC50 was calculated
(§1) In vitro activities for the compounds were measured with Z′-lyte kinase kit (ThermoFisher Scientific). The percent inhibition rate was calculated by normalizing the kinase activity value obtained with 1 μM compound treatment against DMSO control value and then applied to the formula, [1-(compound/DMSO)]×100%. IC50s were calculated using the nonlinear regression curve fit function of the GraphPad Prism software with kinase activities data measured with 9 points 2-fold serial dilution of compounds treatment. In cell pMLC IC50s were calculated with data obtained from A7R5 cell experiments. A7R5 cells were treated with 9 points 2-fold serial dilution of compounds and ppMlc (T18/S19) levels were determined to calculate cellular IC50 values of the compounds using the nonlinear regression curve fit function of the GraphPad Prism software. NIH3T3 cells stably expressing ACTA2-promoter-driven-luciferase were applied to measure ROCK compounds functional IC50s in cells. Cells were plated in 96 well plates to confluence and treated with 9 points serial dilution of compounds in combination with TGFβ1 for 24 hr. Luciferase activities were measured and compound's IC50s were calculated using the nonlinear regression curve fit function of the GraphPad Prism software.

Recombinant ROCK2 (amino acids 1-552), sequence (O75116 1-552): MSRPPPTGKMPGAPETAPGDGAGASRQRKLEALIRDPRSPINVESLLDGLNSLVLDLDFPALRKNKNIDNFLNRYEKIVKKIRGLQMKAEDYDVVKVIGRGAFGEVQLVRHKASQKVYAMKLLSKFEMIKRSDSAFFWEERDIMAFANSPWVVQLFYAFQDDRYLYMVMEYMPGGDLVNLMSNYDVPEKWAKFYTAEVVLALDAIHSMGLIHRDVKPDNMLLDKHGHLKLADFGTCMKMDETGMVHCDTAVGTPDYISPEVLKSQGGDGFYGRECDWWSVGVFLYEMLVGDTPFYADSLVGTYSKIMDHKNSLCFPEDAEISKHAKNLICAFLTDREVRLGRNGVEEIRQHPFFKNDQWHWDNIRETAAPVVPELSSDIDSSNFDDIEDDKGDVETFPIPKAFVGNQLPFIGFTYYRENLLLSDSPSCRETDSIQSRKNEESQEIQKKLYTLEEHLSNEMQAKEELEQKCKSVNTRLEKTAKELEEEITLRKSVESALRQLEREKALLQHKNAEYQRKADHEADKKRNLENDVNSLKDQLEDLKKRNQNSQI

Structure (SMILES)	IC50
O=c1cc(-c2ccc(Nc3ccnc(N4CCNCC4)n3)cc2)cc[nH]1 [Example 360, 4-(4-((2-(piperazin-1-yl)pyrimidin-4-yl)amino)phenyl)pyridin-2(1H)-one]	5200 nM
c1cc(-c2ccc(Nc3nc(N4C5CNCC4C5)nc4c3COCC4)cc2)ccn1 [Example 311, 2-(3,6-diazabicyclo[3.1.1]heptan-6-yl)-N-(4-(pyridin-4-yl)phenyl)-7,8-dihydro-5H-pyrano[4,3-d]pyrimidin-4-amine]	> 1000 nM
CN(C)C1CC2CCC(C1)N2c1nccc(Nc2ccc3[nH]ncc3c2)n1 (stereo not drawn) [Example 337, N-(2-(3-(dimethylamino)-8-azabicyclo[3.2.1]octan-8-yl)pyrimidin-4-yl)-1H-indazol-5-amine]	> 1000 nM
CN(C)C1CC2CC1CN2c1ncc(F)c(Nc2ccc3[nH]ncc3c2)n1 (stereo not drawn) [Example 335, N-(2-(5-(dimethylamino)-2-azabicyclo[2.2.1]heptan-2-yl)-5-fluoropyrimidin-4-yl)-1H-indazol-5-amine]	> 1000 nM
c1cc(-c2ccc(Nc3nc(N4C5CNCC4C5)nc4c3COC4)cc2)ccn1 [Example 312, 2-(3,6-diazabicyclo[3.1.1]heptan-6-yl)-N-(4-(pyridin-4-yl)phenyl)-5,7-dihydrofuro[3,4-d]pyrimidin-4-amine]	> 1000 nM
OC1CC2CCC(C1)N2c1nccc(Nc2ccc3[nH]ncc3c2)n1 (stereo not drawn) [Example 223, 8-(4-((1H-indazol-5-yl)amino)pyrimidin-2-yl)-8-azabicyclo[3.2.1]octan-3-ol]	15.8 nM
c1ccc2c(Nc3ccc4[nH]ncc4c3)nc(N3C4CCC3CNC4)nc2c1 [Example 330, 2-(3,8-diazabicyclo[3.2.1]octan-8-yl)-N-(1H-indazol-5-yl)quinazolin-4-amine]	11 nM
c1cc(Nc2ccc3[nH]ncc3c2)nc(N2CCOCC2)n1 [Example 33, N-(2-morpholinopyrimidin-4-yl)-1H-indazol-5-amine]	> 10000 nM

same assay, conditions: 0.5 μM compound; read-out: ROCK2 % inh. @ [conc]

Structure (SMILES)	inhibition at 0.5 µM
Cc1cc2[nH]ncc2cc1Nc1nc(N2C3CCC2CNC3)ncc1Cl [Example 318, N-(2-(3,8-diazabicyclo[3.2.1]octan-8-yl)-5-chloropyrimidin-4-yl)-6-methyl-1H-indazol-5-amine]	50%
Cc1c(Nc2nc(N3C4CCC3CNC4)ncc2Cl)ccc2[nH]ncc12 [Example 294, N-(2-(3,8-diazabicyclo[3.2.1]octan-8-yl)-5-chloropyrimidin-4-yl)-4-methyl-1H-indazol-5-amine]	0%
Cc1c(Nc2nc(N3C4CNCC3C4)ncc2Cl)ccc2[nH]ncc12 [Example 293, N-(2-(3,6-diazabicyclo[3.1.1]heptan-6-yl)-5-chloropyrimidin-4-yl)-4-methyl-1H-indazol-5-amine]	1%
Clc1cnc(N2CC3CNCC(C2)O3)nc1Nc1ccc2[nH]ncc2c1 [Example 325, N-(2-((1,5)-9-oxa-3,7-diazabicyclo[3.3.1]nonan-3-yl)-5-chloropyrimidin-4-yl)-1H-indazol-5-amine]	25%
c1cc(-c2ccc(Nc3nc(N4C5CNCC4C5)nc4c3CNC4)cc2)ccn1 [Example 292, 2-(3,6-diazabicyclo[3.1.1]heptan-6-yl)-N-(4-(pyridin-4-yl)phenyl)-6,7-dihydro-5H-pyrrolo[3,4-d]pyrimidin-4-amine]	10%

same assay, conditions: 1 μM compound; read-out: ROCK2 % inh. @ [conc]

inhibition at 1 µM	Structure (SMILES)
7.6%	c1ccc2c(c1)N(c1nccc(Nc3ccc4[nH]ncc4c3)n1)CC21CCNCC1 [Example 87, N-(2-(spiro[indoline-3,4′-piperidin]-1-yl)pyrimidin-4-yl)-1H-indazol-5-amine]
33.5%	CCC1CN(c2nc(C)c(C)c(Nc3ccc4[nH]ncc4c3)n2)CCCN1 (stereo not drawn) [Example 26, N-(2-(3-ethyl-1,4-diazepan-1-yl)-5,6-dimethylpyrimidin-4-yl)-1H-indazol-5-amine]
15.2%	Cc1cc(Nc2ccc3[nH]ncc3c2)nc(N2CCN3CCNCC3C2)n1 (stereo not drawn) [Example 133, N-(6-methyl-2-(octahydro-2H-pyrazino[1,2-a]pyrazin-2-yl)pyrimidin-4-yl)-1H-indazol-5-amine]
10.5%	Fc1cnc(N2CC(C3CCNCC3)c3ccccc32)nc1Nc1ccc2[nH]ncc2c1 (stereo not drawn) [Example 175, N-(5-fluoro-2-(3-(piperidin-4-yl)indolin-1-yl)pyrimidin-4-yl)-1H-indazol-5-amine]

test system: ppMlc (T18/S19) levels in A7R5 cells; experiment: A7R5 in-cell ELISA (pMLC); assay type: cell-based, Rat; conditions: A7R5 cells, 1 μM compound
Protocol: Determination of Compounds ROCK Inhibitory Activity in A7R5Cells.
Rat aortic smooth muscle cell line, A7R5, cells were seeded with density of 5,000 cells/well in a 96-well plates for 24 hours and subsequently treated for 90 min with testing compounds. Cells were then fixed and processed according to the In-Cell ELISA Colorimetric Detection Kit manual (Thermo Scientific).
An A7R5 in-cell Elisa assay was performed. A7R5 cells were treated with 9 points 2 fold serial dilution of compounds and ppMlc (T18/S19) levels were determined to calculate cellular IC50 values of the compounds. Compounds of the invention gave in cell IC50s under 100 nM.
as §1

Structure (SMILES)	pMLC % inh A7R5 @ [conc]
c1cc(Nc2ccc3[nH]ncc3c2)nc(N2CCCC(C3CCCNC3)C2)n1 (stereo not drawn) [Example 86, N-(2-([3,3′-bipiperidin]-1-yl)pyrimidin-4-yl)-1H-indazol-5-amine]	377.49%

same assay, conditions: Rattus norvegicus, A7R5, A7R5 cells, 1 μM compound; read-out: pMLC % inh A7R5 @ [conc]

Structure (SMILES)	inhibition at 1 µM
c1ccc2c(c1)N(c1nccc(Nc3ccc4[nH]ncc4c3)n1)CC21CCNCC1 [Example 87, N-(2-(spiro[indoline-3,4′-piperidin]-1-yl)pyrimidin-4-yl)-1H-indazol-5-amine]	5.8%
Cc1cc(Nc2ccc3[nH]ncc3c2)nc(N2CCN3CCNCC3C2)n1 (stereo not drawn) [Example 133, N-(6-methyl-2-(octahydro-2H-pyrazino[1,2-a]pyrazin-2-yl)pyrimidin-4-yl)-1H-indazol-5-amine]	3.1%
Cc1cc(Nc2ccc3[nH]ncc3c2)nc(N2CCCC(C3CCCNC3)C2)n1 (stereo not drawn) [Example 136, N-(2-([3,3′-bipiperidin]-1-yl)-6-methylpyrimidin-4-yl)-1H-indazol-5-amine]	1.1%
Fc1cnc(N2CCC3(CC2)CNCCO3)nc1Nc1ccc2[nH]ncc2c1 [Example 160, N-(5-fluoro-2-(1-oxa-4,9-diazaspiro[5.5]undecan-9-yl)pyrimidin-4-yl)-1H-indazol-5-amine]	5.9%
Fc1cnc(N2CC3(CNC3)C2)nc1Nc1ccc2[nH]ncc2c1 [Example 165, N-(5-fluoro-2-(2,6-diazaspiro[3.3]heptan-2-yl)pyrimidin-4-yl)-1H-indazol-5-amine]	-10.2%
Cc1cc(Nc2ccc3[nH]ncc3c2)nc(N2CCC3(CC2)CNC3)n1 [Example 121, N-(6-methyl-2-(2,7-diazaspiro[3.5]nonan-7-yl)pyrimidin-4-yl)-1H-indazol-5-amine]	-7.3%
Fc1cnc(N2CCC3(CCCNC3)C2)nc1Nc1ccc2[nH]ncc2c1 (stereo not drawn) [Example 161, N-(5-fluoro-2-(2,7-diazaspiro[4.5]decan-2-yl)pyrimidin-4-yl)-1H-indazol-5-amine]	2.6%
c1cc(Nc2ccc3[nH]ncc3c2)nc(N2CC3(CNC3)C2)n1 [Example 77, N-(2-(2,6-diazaspiro[3.3]heptan-2-yl)pyrimidin-4-yl)-1H-indazol-5-amine]	-2.9%
c1cc(Nc2ccc3[nH]ncc3c2)nc(N2CCC3(CC2)CNCCO3)n1 [Example 72, N-(2-(1-oxa-4,9-diazaspiro[5.5]undecan-9-yl)pyrimidin-4-yl)-1H-indazol-5-amine]	-6.7%
c1cc(Nc2ccc3[nH]ncc3c2)nc(N2C[C@@H]3CN[C@@H]3C2)n1 [Example 81, N-(2-((1S,5S)-3,6-diazabicyclo[3.2.0]heptan-3-yl)pyrimidin-4-yl)-1H-indazol-5-amine]	13.2%
Fc1cnc(N2CCCC(C3CCCNC3)C2)nc1Nc1ccc2[nH]ncc2c1 (stereo not drawn) [Example 171, N-(2-([3,3′-bipiperidin]-1-yl)-5-fluoropyrimidin-4-yl)-1H-indazol-5-amine]	-9.6%

same assay, conditions: Rattus norvegicus, A7R5, A7R5 cells, 10 μM compound; read-out: pMLC % inh A7R5 @ [conc]

Structure (SMILES)	inhibition at 10 µM
O=c1cc(-c2ccc(Nc3ccnc(N4CCNCC4)n3)cc2)cc[nH]1 [Example 360, 4-(4-((2-(piperazin-1-yl)pyrimidin-4-yl)amino)phenyl)pyridin-2(1H)-one]	1.69%
CCC1CN(c2nc(C)c(C)c(Nc3ccc4[nH]ncc4c3)n2)CCCN1 (stereo not drawn) [Example 26, N-(2-(3-ethyl-1,4-diazepan-1-yl)-5,6-dimethylpyrimidin-4-yl)-1H-indazol-5-amine]	39.9%
Nc1nnc(-c2ccc(Nc3ccnc(N4CCNCC4)n3)cc2)o1 [Example 362, 5-(4-((2-(piperazin-1-yl)pyrimidin-4-yl)amino)phenyl)-1,3,4-oxadiazol-2-amine]	5.14%
Cc1nc(N2CC(C)NC(C)C2)nc(Nc2ccc3[nH]ncc3c2)c1C (stereo not drawn) [Example 24, N-(2-(3,5-dimethylpiperazin-1-yl)-5,6-dimethylpyrimidin-4-yl)-1H-indazol-5-amine]	22.6%
Cc1cnc(N2CCCNC(C(C)C)C2)nc1Nc1ccc2[nH]ncc2c1 (stereo not drawn) [Example 92, N-(2-(3-isopropyl-1,4-diazepan-1-yl)-5-methylpyrimidin-4-yl)-1H-indazol-5-amine]	19.6%
COc1cnc(N2CC(C)NC(C)C2)nc1Nc1ccc2[nH]ncc2c1 (stereo not drawn) [Example 52, N-(2-(3,5-dimethylpiperazin-1-yl)-5-methoxypyrimidin-4-yl)-1H-indazol-5-amine]	29.5%
CC(C)C1CCN(c2ncc(Cl)c(Nc3ccc4[nH]ncc4c3)n2)CCN1 (stereo not drawn) [Example 182, N-(5-chloro-2-(5-isopropyl-1,4-diazepan-1-yl)pyrimidin-4-yl)-1H-indazol-5-amine]	30.2%
CC1CN(c2nccc(Nc3ccc(-c4cn[nH]c4)cc3)n2)CC(C)N1 (stereo not drawn) [Example 256, N-(4-(1H-pyrazol-4-yl)phenyl)-2-(3,5-dimethylpiperazin-1-yl)pyrimidin-4-amine]	84.5%
CC(C)C1CN(c2ncc(Cl)c(Nc3ccc4[nH]ncc4c3)n2)CCCN1 (stereo not drawn) [Example 181, N-(5-chloro-2-(3-isopropyl-1,4-diazepan-1-yl)pyrimidin-4-yl)-1H-indazol-5-amine]	36.5%

same assay, conditions: Rattus norvegicus, A7R5, A7R5 cells, ppMlc (T18/S19)

IC50	Structure (SMILES)
1560 nM	CC1CN(c2nccc(Nc3ccc(-c4cn[nH]c4)cc3)n2)CC(C)N1 (stereo not drawn) [Example 256, N-(4-(1H-pyrazol-4-yl)phenyl)-2-(3,5-dimethylpiperazin-1-yl)pyrimidin-4-amine]
